# Measured values: article PMC5431371, “Crystal structure-based discovery of a novel synthesized PARP1 inhibitor (OL-1) with apoptosis-inducing mechanisms in triple-negative breast cancer” (Scientific Reports, 2016)
# Where “and” joins values, the source holds several entries; their conditions need not be identical. Equal entries are not always repeated. Where two headings read alike, the source gives them in different places.
# Tests used:
# Recombinant Human PARP1 = molecular target: T1, Recombinant Human PARP1 (Homo sapiens, UniProt P09874); experiment: PARP1 enzymatic inhibition assay (Universal Chemiluminescent PARP Assay Kit); assay type: biochemical; conditions: mean ± SD, at least three independent experiments
# T1 construct: purchased Trevigen
# T1 sequence (P09874 whole entry): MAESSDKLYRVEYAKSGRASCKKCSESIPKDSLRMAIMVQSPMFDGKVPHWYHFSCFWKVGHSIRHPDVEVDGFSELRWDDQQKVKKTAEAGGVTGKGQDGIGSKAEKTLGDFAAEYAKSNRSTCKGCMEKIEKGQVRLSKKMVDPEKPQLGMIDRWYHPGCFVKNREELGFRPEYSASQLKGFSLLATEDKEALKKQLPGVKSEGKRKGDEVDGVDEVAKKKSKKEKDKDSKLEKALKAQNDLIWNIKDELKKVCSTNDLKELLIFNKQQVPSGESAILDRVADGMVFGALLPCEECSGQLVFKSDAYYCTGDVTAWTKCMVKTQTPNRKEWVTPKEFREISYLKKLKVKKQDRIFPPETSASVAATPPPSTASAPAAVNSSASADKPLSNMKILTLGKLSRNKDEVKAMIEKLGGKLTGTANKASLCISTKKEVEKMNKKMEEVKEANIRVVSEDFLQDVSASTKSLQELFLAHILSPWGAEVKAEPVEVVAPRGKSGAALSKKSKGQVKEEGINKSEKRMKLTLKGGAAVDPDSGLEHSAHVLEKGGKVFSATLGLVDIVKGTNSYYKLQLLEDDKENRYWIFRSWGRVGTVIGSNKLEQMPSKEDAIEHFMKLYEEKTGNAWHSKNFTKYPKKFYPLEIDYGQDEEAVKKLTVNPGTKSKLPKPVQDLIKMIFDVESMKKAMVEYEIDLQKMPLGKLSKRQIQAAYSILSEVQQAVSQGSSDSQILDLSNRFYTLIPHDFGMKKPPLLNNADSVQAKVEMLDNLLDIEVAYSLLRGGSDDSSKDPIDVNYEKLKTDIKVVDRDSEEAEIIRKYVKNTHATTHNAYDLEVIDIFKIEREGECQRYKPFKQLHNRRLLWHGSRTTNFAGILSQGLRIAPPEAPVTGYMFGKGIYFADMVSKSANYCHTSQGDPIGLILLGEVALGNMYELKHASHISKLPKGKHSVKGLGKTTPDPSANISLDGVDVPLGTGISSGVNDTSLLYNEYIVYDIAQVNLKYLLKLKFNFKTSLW
# Method: The PARP1 enzymatic inhibition assay was performed by using Universal Chemiluminescent PARP Assay Kit (Trevigen, Gaithersburg, MD, USA) according to the manufacturer’s instruction and previous report. Briefly, serial dilutions of inhibitor were added to appropriate wells followed by addition of diluted PARP1 enzyme (0.5 Unit/well). After incubation for 10 min at room temperature, distributing 25 μL of 1X PARP Cocktail into each well and incubating the strip wells at room temperature for 60 min. The strip wells were washed with 1X PBS and 0.1% Triton X-100 for twice. Then 50 µL/well of diluted Strep-HRP was added to each well and incubate at room temperature for 60 min. After another wash with PBS, mixing equal volumes of PeroxyGlow™ A and B together and adding 100 µl per well. Finally, immediately taking the chemiluminescent readings. The IC50 values of PARP1 inhibitors were determined using Prism 6 software (GraphPad, San Diego, CA, USA).
# MDA-MB-436 cells [1] = experiment: Cell viability assay (MTT); assay type: cell-based; conditions: Homo sapiens
# Method: 5 × 10^3 cells were seeded into each well in 96-well microplates and cultured for 24 h. […] After drug treatment, the cell viabilities were detected by MTT assay.
# MDA-MB-436 cells [2] = experiment: Apoptosis assay (Annexin V-FITC/PI double staining, flow cytometry); assay type: cell-based; conditions: MDA-MB-436, 0.25-1 μM, 24 h
# Method: MDA-MB-436 cells (1 × 10^5 per well) were seeded into 6-well microplates in the presence or absence of OL-1 and cultured for 24 h, then incubated with 500 μL Hoechst 33258 staining solution (0.5 μg/mL) for 30 min at 37 °C. After staining, the apoptotic features were observed under fluorescence microscope. Apoptotic ratio was measured by Annexin-V-FLUOS Staining Kit (Roche, Germany) according to the manufacturer’s protocol followed by flow cytometry (FACS) analysis (Becton Dickinson, Franklin Lakes, NJ).
# MDA-MB-436 xenograft = MDA-MB-436 xenograft tumor model; assay type: in vivo, BALB/c nude mice
# Method: All experiments protocols used in this study were carried out in accordance with guidelines of the animal ethics committee (Sichuan University). Thirty-two 6–8 weeks-old female BALB/c nude mice (18–20 g) were subcutaneously injected with MDA-MB-436 cells (1 × 10^7 cells/mouse). Until the tumor volumes reached 100 mm^3 (calculated as V = L × W^2/2), the mice were randomly divided into four groups. […] Body weight and the tumor size were determined every day until the end of the study. All mice were sacrificed at the end of drug treatment. The organs of mice such as spleen, liver and kidney were harvested and weighed. Tumor tissues were detached and fixed in 4% paraformaldehyde for immunohistochemistry or lysed for western blotting.
# Immunohistochemical analysis was carried out by the method of our previous study. Samples were dehydrated using gradient ethanol, and subsequently paraffin embedded. The paraffin embedded samples were sliced into 5 μm thickness sections. […] Nuclei were counterstained with hematoxylin. The numbers of positive cells were counted in at least 6 fields for each section and statistical analyzed.
# PARP1 and PAR = experiment: Western blot analysis of PARP1 and PAR in treated cells; assay type: cell-based; conditions: MDA-MB-436 cells
# Method: (§1) Western blot analysis was carried out briefly as previous description. MDA-MB-436 cells were exposed to OL-1 for indicated time. Both floating cells and adherent were collected. The cell pellets were resuspended with RIPA lysis buffer and PMSF (1 mM) (Beyotime, Haimen, Jiangsu, China) and lysed at 4 °C for 1 h. After 12,000 rpm centrifugation for 10 min, the supernatant was collected to determine the protein content by the BCA Protein Assay Kit (CWBIO, Beijing, China). […] After pre-blocking in TBST with 5% non-fat milk or BSA for 1 h, the membranes were incubated with primary antibodies overnight at 4 °C, and subsequently incubated with HRP-conjugated secondary antibody at room temperature for 1–2 h. Positive signals were detected by using ECL as the HRP substrate after washing with TBST solution.
# Bax, Bcl-2, Caspase-3 = experiment: Western blot analysis of apoptotic markers; assay type: cell-based; conditions: MDA-MB-436 cells
# Method: as §1
# MDA-MB-436 cells [3] = experiment: Cell migration assay (scratch wound); assay type: cell-based; conditions: 24 h
# Method: MDA-MB-436 cells were cultured in 24-well microplates and scratch-wounded by sterilized pipettes. Then the cells were washed with PBS and cultured with normal medium or OL-1. After 24 h incubation, pictures were taken by phase-contrast microscope.
# [4] = recombinant human PARP1, read-out: Enzymatic inhibition (IC50, μM) PARP1
# [5] = MDA-MB-436 cells (BRAC1 mutant breast cancer), mean ± SD, at least three independent experiments, read-out: Anti-cell viability (IC50, μM) MDA-MB-436
# [6] = high dose 25 mg/kg/d i.p., 14 days, vs Iniparib 100 mg/kg/d and low dose 12.5 mg/kg/d, P < 0.05
IC50 (Recombinant Human PARP1; [4]),IC50 (MDA-MB-436 cells [1]; [5]),Structure (SMILES),further results
> 20 µM,–,CN(C)CC=C1c2ccccc2Cc2ccccc21 [Compound 26a],–
17.9 ± 2.46 µM,> 20 µM,CN(C)CCC=C1c2ccccc2Cc2ccccc21 [Compound 26b],–
> 20 µM,–,CN(C)CCCC=C1c2ccccc2Cc2ccccc21 [Compound 26c],–
> 20 µM,–,CN(C)CC=C1c2ccccc2Oc2ccccc21 [Compound 28a],–
> 20 µM,–,CN(C)CCC=C1c2ccccc2Oc2ccccc21 [Compound 28b],–
> 20 µM,–,CN(C)CCCC=C1c2ccccc2Oc2ccccc21 [Compound 28c],–
9.11 µM and 19.1 µM,> 20 µM,COC(=O)Cc1ccc2c(c1)C(=CCCN(C)C)c1ccccc1CO2 [Compound 33a],–
> 20 µM,–,CCOC(=O)Cc1ccc2c(c1)C(=CCCN(C)C)c1ccccc1CO2 [Compound 33b],–
7.35 ± 1.32 µM,8.23 ± 1.56 µM,CC(C)NC(=O)Cc1ccc2c(c1)C(=CCCN(C)C)c1ccccc1CO2 [Compound 33j],–
19.1 ± 2.16 µM,> 20 µM,CN(C)CCC=C1c2ccccc2COc2ccc(CC(=O)NCCO)cc21 [Compound 33k],–
> 20 µM,–,CN(C)CCC=C1c2ccccc2COc2ccc(CC(=O)NC3CC3)cc21 [Compound 33n],–
> 20 µM,–,COCCCNC(=O)Cc1ccc2c(c1)C(=CCCN(C)C)c1ccccc1CO2 [Compound 33o],–

# The next lines start with the molecule.
Structure (SMILES),IC50 (Recombinant Human PARP1; [4]),IC50 (MDA-MB-436 cells [1]; [5]),further results
"CN(C)CCC=C1c2ccccc2CCc2ccccc21 [11d (PA-10), 3-(10,11-dihydro-5H-dibenzo[a,d][7]annulen-5-ylidene)-N,N-dimethylpropan-1-amine]",1.65 ± 0.25 µM,5.44 ± 1.01 µM,–
CN(C)CC/C=C1/c2ccccc2COc2ccc(CC(=O)NN)cc21 [33e (OL-1)],–,0.736 ± 0.223 µM,"IC50 (Recombinant Human PARP1; Enzymatic inhibition (IC50, μM) PARP1, recombinant human PARP1): 0.079 ± 0.013 µM; IC50 (MDA-MB-436 cells [1]; BRCA1 mutant MDA-MB-436 cells, MTT, Fig. 11A, read-out: anti-proliferative effects IC50): 5.14 µM; apoptotic cell ratio (MDA-MB-436 cells [2]): obviously increased in a concentration-dependent manner; loss of body weight (MDA-MB-436 xenograft; 25 mg/kg/d i.p., during the 14 days of treatment, P < 0.01): 10.05%; liver, spleen and kidney weights (MDA-MB-436 xenograft; OL-1 treated groups (12.5 and 25 mg/kg/d i.p.)): not changed; tumor volumes (MDA-MB-436 xenograft; [6]): lower than the positive control; tumor weights (MDA-MB-436 xenograft; [6]): lower than the positive control; positive ratio of Ki-67 in tumor tissues (MDA-MB-436 xenograft; immunohistochemistry, compared to the control group): significantly reduced; decrease of body weights (MDA-MB-436 xenograft; low dose 12.5 mg/kg/d i.p., 14 days): not obvious; expression of PAR (western blot) (PARP1 and PAR): decreased; activity of PARP (western blot) (PARP1 and PAR; no cleavage of PARP): significantly inhibited; Bax expression (Bax, Bcl-2, Caspase-3): upregulated; Bcl-2 expression (Bax, Bcl-2, Caspase-3): downregulated; cleavage of caspase-3 (Bax, Bcl-2, Caspase-3): increased; cell migration (MDA-MB-436 cells [3]): could inhibit cell migration"
CNCC=C1c2ccccc2CCc2ccccc21 [Compound 11a],> 20 µM,–,–
CN(C)CC=C1c2ccccc2CCc2ccccc21 [Compound 11b],16.2 ± 1.24 µM,> 20 µM,–
CNCCC=C1c2ccccc2CCc2ccccc21 [Compound 11c],4.21 µM and 14.2 µM,> 20 µM,–
CNCCCC=C1c2ccccc2CCc2ccccc21 [Compound 11e],> 20 µM,–,–
CN(C)CCCC=C1c2ccccc2CCc2ccccc21 [Compound 11f],> 20 µM,–,–
C(=C1c2ccccc2CCc2ccccc21)c1ccccc1 [Compound 15a],> 20 µM,–,–
Fc1ccc(C=C2c3ccccc3CCc3ccccc32)cc1 [Compound 15b],> 20 µM,–,–
Clc1ccc(C=C2c3ccccc3CCc3ccccc32)cc1 [Compound 15c],> 20 µM,–,–
Brc1ccc(C=C2c3ccccc3CCc3ccccc32)cc1 [Compound 15d],> 20 µM,–,–
Cc1ccc(C=C2c3ccccc3CCc3ccccc32)cc1 [Compound 15e],> 20 µM,–,–
CN(C)CC=C1c2ccccc2COc2ccccc21 [Compound 19a],13.2 ± 2.33 µM,> 20 µM,–
CN(C)CCC=C1c2ccccc2COc2ccccc21 [Compound 19b],0.75 ± 0.27 µM,–,–
CN(C)CCCC=C1c2ccccc2COc2ccccc21 [Compound 19c],> 20 µM,–,–
CN(C)CC=C1c2ccccc2CSc2ccccc21 [Compound 23a],19.2 ± 3.05 µM,> 20 µM,–
CN(C)CCC=C1c2ccccc2CSc2ccccc21 [Compound 23b],1.04 ± 0.17 µM,17.9 ± 2.11 µM,–
CN(C)CCCC=C1c2ccccc2CSc2ccccc21 [Compound 23c],> 20 µM,–,–
CN(C)CC/C=C1/c2ccccc2COc2ccc(CC(=O)O)cc21 [Compound 31],11.2 ± 1.16 µM,> 20 µM,–
"NC(=O)c1ccc(I)c([N+](=O)[O-])c1 [Iniparib, reference compound]",–,14.3 ± 1.56 µM,"liver weights (MDA-MB-436 xenograft; 100 mg/kg/d, 14 days, P < 0.01): significantly decreased; spleen weights (MDA-MB-436 xenograft; 100 mg/kg/d, 14 days, P < 0.05): affected"
"O=C(c1cc(Cc2n[nH]c(=O)c3ccccc23)ccc1F)N1CCN(C(=O)C2CC2)CC1 [Olaparib, reference compound]",–,–,"IC50 (MDA-MB-436 cells [1]; MDA-MB-436, read-out: Anti-cell viability (IC50, μM) MDA-MB-436): 1.12 ± 0.77 µM"
